Consider 4 molecules from paper PMC7643060, “Human perinatal stem cell derived extracellular matrix enables rapid maturation of hiPSC-CM structural and functional phenotypes” (Scientific Reports, 2020).

One data set relates to hiPSC-CM syncytia. Put plainly: Proarrhythmia screen in 96 well plates using CiPA compounds (voltage sensitive dye, optical mapping). The format is cell-based, human. The settings on record: hiPSC-CM syncytia on Matrix Plus, 10 × ETPC, 30 min exposure. On the procedure:
MatrixPlus coated 6 or 96 well plates were stored at 4 °C, transferred to room temperature on the day of cell plating and rehydrated (30 min) in Hank’s Balanced Salt Solution (HBSS). HBSS was aspirated and hiPSC-CMs were plated essentially as before[17],[22]. Briefly, commercially available iCell[2] Cardiomyocytes (Cellular Dynamics International) were thawed at 37 °C for 4 min, diluted in 7 ml of EB20 medium supplemented with blebbistatin (DMEM:F12, 20%FBS, 0.1% glutamine, 0.2%NEAA, 25 µM blebbistatin) and centrifuged (1000 rpm for 5 min) for removal of cryoprotectants. All work with human pluripotent stem cell derived cardiomyocytes was performed with approval from the University of Michigan Human Pluripotent Stem Cell Research Oversight committee (HPSCRO). All methods with human samples were handled following NIH guidelines. Cells from a single vial were diluted in EB20 with blebbistatin ([…]) and split evenly for plating on Matrigel, CELLvo Matrix and MatrixPLUS. Total amount of cells per functional syncytia varied depending on plate format, six well plates received 150,000 cells in the center of 1 cm diameter of matrix; and 96 well plates received 75,000 cells per well. Lower density plating (25,000 cells per well) was also used to more clearly observe cellular shape. hiPSC-CMs were maintained in cardiomyocyte EB20 supplemented with blebbistatin for 2 days before culture in RPMI supplemented with B27 for another 5 days[1].
(§1) Proarrhythmia screening assay was performed using voltage sensitive dye (VSD, FluoVolt) and high speed CCD camera (200fps)[24]. […] Supplemental Tables 1–3 outline each drug tested, the CiPA risk classification, the concentrations used and the clinical recorded Cmax for each drug to provide clinical reference for drug concentrations. Cells were then submitted to optical mapping for detection of voltage changes recorded with the CCD camera via selection of appropriate light wavelength (filter 515 nm, green light, Chroma). Movies were analyzed with custom made analysis software (Scroll) for determination of action potential duration and conduction velocity as described before[22],[24],[25].
Supplemental tables 1-3 outline each drug tested, the CiPA risk classification, the concentrations used and the clinical recorded Cmax for each drug to provide clinical reference for drug concentrations. hiPSC-CM monolayers were then submitted to optical mapping for detection of membrane voltage changes recorded with the CCD camera via selection of appropriate light wavelength (filter 515 nm, green light, Chroma). Movies were analyzed with custom made analysis software (Scroll) for determination of action potential duration and conduction velocity where appropriate.

A further data set relates to hiPSC-CM monolayers. The class given is cell-based, human. The protocol:
HBSS was aspirated and hiPSC-CMs were plated essentially as before[17],[22]. Briefly, commercially available iCell[2] Cardiomyocytes (Cellular Dynamics International) were thawed at 37 °C for 4 min, diluted in 7 ml of EB20 medium supplemented with blebbistatin (DMEM:F12, 20%FBS, 0.1% glutamine, 0.2%NEAA, 25 µM blebbistatin) and centrifuged (1000 rpm for 5 min) for removal of cryoprotectants. All work with human pluripotent stem cell derived cardiomyocytes was performed with approval from the University of Michigan Human Pluripotent Stem Cell Research Oversight committee (HPSCRO). All methods with human samples were handled following NIH guidelines. […]
as §1

As to `CC(C)COCC(CN(Cc1ccccc1)c1ccccc1)N1CCCC1` (stereo not drawn) [bepridil], the Wells with arrhythmias entry in the data set on hiPSC-CM syncytia is listed as “did not yield arrhythmic responses”.

`CC(C)N(CCC(C(N)=O)(c1ccccc1)c1ccccn1)C(C)C` (stereo not drawn) [disopyramide]: in the data set on hiPSC-CM syncytia, the Wells with arrhythmias is reported as 66%. On the same count and under the same terms, the value for `CN(CCOc1ccc(NS(C)(=O)=O)cc1)CCc1ccc(NS(C)(=O)=O)cc1` [dofetilide] was 83%. On to `COc1ccccc1OCC(O)CN1CCN(CC(=O)Nc2c(C)cccc2C)CC1` (stereo not drawn) [ranolazine], for which the Wells with arrhythmias result in the data set on hiPSC-CM syncytia is on record as “did not detect any arrhythmias”. In the data set with hiPSC-CM monolayers, the “Appearance of arrhythmias of TdP” value is “did not observe appearance of arrhythmias of TdP” and the “Change of beat rate or conduction velocity” value was “did not significantly alter beat rate or conduction velocity”.
